From patent US20020025940A1, “Methods and compositions for sensitive and rapid, functional identification of genomic polynucleotides and use for cellular assays in drug discovery” (Aurora Biosciences Corporation, priority 1997, published 2002)

How the values were obtained:
Assay type in all cases: cell-based, human
[1] = tested on: BLEC Jurkat clones; assay: Specificity of activated BLEC Jurkat clones, relative beta-lactamase activity; details: PMA 8 nM, Thaps 1 microM, CsA 100 nM, PHA 10 microgram/ml
From the text: (§1) Isolated clones from PHA-induced (Example 6) and PHA-repressed (Example 7) procedures described above were characterized to determine the specificity of their modulation and time required for induction or repression. Clones were stimulated with multiple activators or inhibitors over a one to twenty-four hour time interval.
(§2) In this study, PMA, which is a PKC activator, Thapsigargin which increases intracellular calcium, PHA which activates the T-cell receptor pathway, and cyclosporin A which is a clinically approved immunosuppressant that inhibits the Ca^2+ dependent phosphates calcineurin were investigated for their ability to modulate beta-lactamase expression in PHA induced and repressed BLEC clones.

[2] = tested on: clone C2 (3×NFAT response element linked to beta-lactamase, M1 muscurinic receptor); assay: Relative beta-lactamase activity of control clone C2; details: PMA 8 nM, Thaps 1 microM, CsA 100 nM, PHA 10 microgram/ml
From the text: as §1, §2

[3] = tested on: induced BLEC Jurkat clones; assay: Characterization of induced BLEC Jurkat clones, change in 460/530 ratio; details: PHA 10 microgram/ml, Thaps 1 microM, PMA 8 nM, Anti-CD3 2 microgram/ml
From the text: These clones represent cells in which the trapping construct had integrated into a gene up regulated by PHA (T-cell) activation. Thus, these cells report the transcriptional activation of a gene upon cellular activation. Individual clones were identified and isolated by FACS using CCF2/AM to detect beta-lactamase activity. This clone isolation method, the induced sorting paradigm, used three sequential and independent stimulation and sorting protocols. […] These control cells were all green.
These isolated clones were expanded and tested for PHA inducibility by microscopic inspection with and without PHA stimulation in the presence of CCF2/AM. A total of fifty-five PHA inducible clones were identified using this procedure. The PHA inducibility for these clones ranged from a 1.5 to 40 fold change in the 460/530 ratio as compared to unstimulated control cells. Genomic Southern analysis using a DNA probe encoding beta-lactamase established that these clones represented 34 independent stable vector integration events. A list of clones obtained by the methods of the present invention and their characteristics is provided below in Table 6 and Table 7.
In addition to PHA inducible clones, Phobol 12-myristate 13-acetate (PMA) (Calbiochem), Thapsigargin (Thaps) (Calbiochem), and PMA+Thaps inducible clones were isolated using the general procedure set forth above using the indicated inducer rather than PHA. PMA is a specific activator of PKC (protein kinase C) and Thaps is a specific activator of intracellular calcium ion release (Thaps). These clones were isolated using three rounds of FACS using the general procedures described for the PHA inducible clones in Example 5. In such instances, other stimulants were substituted for PHA. PMA was provided at 8 nM, Thaps was provided at 1 microM. When these two stimulants were combined, their concentration was not changed. […] By using varied selection conditions, it is possible to isolate functionally distinct clones downstream of the desired signaling target.
Table 7 and Table 8 provide data similar to that provided in Table 5 for all of the clones obtained by the methods of Examples 5 to 7.

Structure (SMILES): CCCCCCCCCCCCCC(=O)O[C@@H]1[C@@H](C)[C@@]2(O)[C@@H](C=C(CO)C[C@]3(O)C(=O)C(C)=C[C@@H]23)[C@@H]2C(C)(C)[C@]12OC(C)=O [PMA, Phobol 12-myristate 13-acetate]
- Relative Beta-Lactamase Activity of the Clone by the Indicated Stimulus After 24 hours (% of maximum activated stimuli) ([1]; clone J32-6D4): 60%
- Relative Beta-Lactamase Activity of the Clone by the Indicated Stimulus After 24 hours (% of maximum activated stimuli) ([1]; clone J83 97-PPTR2 (repressed paradigm)): 100%
- Relative Beta-Lactamase Activity of the Clone by the Indicated Stimulus After 24 hours (% of maximum activated stimuli) ([1]; clone J83-PI9): <1%
- Relative Beta-Lactamase Activity of the Clone by the Indicated Stimulus After 24 hours (% of maximum activated stimuli) ([1]; clone J83-PTI8): 80%
- Relative Beta-Lactamase Activity of the Clone by the Indicated Stimulus After 24 hours (% of maximum activated stimuli) ([1]; clone J389-PTI4): 90%
- Relative Beta-Lactamase Activity of the Clone by the Indicated Stimulus After 24 hours (% of maximum activated stimuli) [2]: <1%
- Change in 460/530 ratio in the indicated clone by the following activator ([3]; clone J83PI1): 3-4
- Change in 460/530 ratio in the indicated clone by the following activator ([3]; clone J83PI2): 7-8
- Change in 460/530 ratio in the indicated clone by the following activator ([3]; clone J83PI3): 3-4
- Change in 460/530 ratio in the indicated clone by the following activator ([3]; clone J83PI4): 0
- Change in 460/530 ratio in the indicated clone by the following activator ([3]; clone J83PI6): 0
- Change in 460/530 ratio in the indicated clone by the following activator ([3]; clone J83PI7): 2
- Change in 460/530 ratio in the indicated clone by the following activator ([3]; clone J83PI8): 4-5
- Change in 460/530 ratio in the indicated clone by the following activator ([3]; clone J83PI9): 0
- Change in 460/530 ratio in the indicated clone by the following activator ([3]; clone J83PI13): 0
- Change in 460/530 ratio in the indicated clone by the following activator ([3]; clone J83PI14): 2
- Change in 460/530 ratio in the indicated clone by the following activator ([3]; clone J83PI15): 3
- Change in 460/530 ratio in the indicated clone by the following activator ([3]; clone J83PI16): 3-4
- Change in 460/530 ratio in the indicated clone by the following activator ([3]; clone J83PI18): 5
- Change in 460/530 ratio in the indicated clone by the following activator ([3]; clone J83PI19): 3
- Change in 460/530 ratio in the indicated clone by the following activator ([3]; clone J97PI1): 3-4
- Change in 460/530 ratio in the indicated clone by the following activator ([3]; clone J97PI3): 1-2
- Change in 460/530 ratio in the indicated clone by the following activator ([3]; clone J97PI4): 1-2
- Change in 460/530 ratio in the indicated clone by the following activator ([3]; clone J97PI5): 1.5
- Change in 460/530 ratio in the indicated clone by the following activator ([3]; clone J97PI6): 1-2
- Change in 460/530 ratio in the indicated clone by the following activator ([3]; clone J97PI7): 1-2
- Change in 460/530 ratio in the indicated clone by the following activator ([3]; clone J97PI8): 1-2
- Change in 460/530 ratio in the indicated clone by the following activator ([3]; clone J97PI9): 1-2
- Change in 460/530 ratio in the indicated clone by the following activator ([3]; clone J97PI10): 1-2
- Change in 460/530 ratio in the indicated clone by the following activator ([3]; clone J97PI11): 2
- Change in 460/530 ratio in the indicated clone by the following activator ([3]; clone J97PI12): 2-3
- Change in 460/530 ratio in the indicated clone by the following activator ([3]; clone J97PI13): 1-2
- Change in 460/530 ratio in the indicated clone by the following activator ([3]; clone J97PI14): 2
- Change in 460/530 ratio in the indicated clone by the following activator ([3]; clone J97PI15): 1-2
- Change in 460/530 ratio in the indicated clone by the following activator ([3]; clone J97PI17): 1-2
- Change in 460/530 ratio in the indicated clone by the following activator ([3]; clone J97PI18): 1-2
- Change in 460/530 ratio in the indicated clone by the following activator ([3]; clone J97PI19): 1-2
- Change in 460/530 ratio in the indicated clone by the following activator ([3]; clone J97PI20): 1-2
- Change in 460/530 ratio in the indicated clone by the following activator ([3]; clone J97PI21): 1-2
- Change in 460/530 ratio in the indicated clone by the following activator ([3]; clone J97PI22): 2-3
- Change in 460/530 ratio in the indicated clone by the following activator ([3]; clone J97PI23): 1-2
- Change in 460/530 ratio in the indicated clone by the following activator ([3]; clone J97PI24): 2-3
- Change in 460/530 ratio in the indicated clone by the following activator ([3]; clone J97PI116): 2-3
- Change in 460/530 ratio in the indicated clone by the following activator ([3]; clone J325B5): 2-3
- Change in 460/530 ratio in the indicated clone by the following activator ([3]; clone J325B11): 2-3
- Change in 460/530 ratio in the indicated clone by the following activator ([3]; clone J325E1): 8
- Change in 460/530 ratio in the indicated clone by the following activator ([3]; clone J325E3): 2-3
- Change in 460/530 ratio in the indicated clone by the following activator ([3]; clone J325E6): 3-4
- Change in 460/530 ratio in the indicated clone by the following activator ([3]; clone J325G4): 3-4
- Change in 460/530 ratio in the indicated clone by the following activator ([3]; clone J326C9): 2-3
- Change in 460/530 ratio in the indicated clone by the following activator ([3]; clone J326D4): 10
- Change in 460/530 ratio in the indicated clone by the following activator ([3]; clone J326D7): 10
- Change in 460/530 ratio in the indicated clone by the following activator ([3]; clone J326F7): 10
- Change in 460/530 ratio in the indicated clone by the following activator ([3]; clone J326H4): 10
- Change in 460/530 ratio in the indicated clone by the following activator ([3]; clone J389PM2): 3-4
- Change in 460/530 ratio in the indicated clone by the following activator ([3]; clone J389PM3): 2-3
- Change in 460/530 ratio in the indicated clone by the following activator ([3]; clone J389PM5): 3-4
- Change in 460/530 ratio in the indicated clone by the following activator ([3]; clone J389PM7): 1-2
- Change in 460/530 ratio in the indicated clone by the following activator ([3]; clone J389PM8): 2-3
- Change in 460/530 ratio in the indicated clone by the following activator ([3]; clone J389PT4): 12
- Change in 460/530 ratio in the indicated clone by the following activator ([3]; clone J389PTt): 8-9
- Change in 460/530 ratio in the indicated clone by the following activator ([3]; clone J389TI1): 1-2
- Change in 460/530 ratio in the indicated clone by the following activator ([3]; clone J389TI4): 1-2
